{"source": "patent US12558338B2", "about": "“Pharmaceutical composition” (SUNSHINE LAKE PHARMA CO., LTD., priority 2019, dated 2026)", "assay": "Solubility in water", "format": "physicochemical", "settings": "compared with memantine hydrochloride", "data": [{"smiles": "CC12CC3CC(C)(C1)CC(NC(=O)OCOC(=O)c1ccccc1)(C3)C2", "note": "[formula A, ((((1r,3R,5S,7r)-3,5-dimethyladamantan-1-yl)carbamoyl)oxy)methyl benzoate]", "values": [{"measurement": "solubility", "result": "almost insoluble in water"}]}]}
